These results are taken from patent publication US9708259B2 (Hoffmann-La Roche Inc., priority 2013, dated 2017).

For series [1], the target named is T1, human M1 (Homo sapiens, UniProt P11229).
T1 construct: expressed in transfected cells; host or cells: CHO cells
T1 sequence (P11229 1-460): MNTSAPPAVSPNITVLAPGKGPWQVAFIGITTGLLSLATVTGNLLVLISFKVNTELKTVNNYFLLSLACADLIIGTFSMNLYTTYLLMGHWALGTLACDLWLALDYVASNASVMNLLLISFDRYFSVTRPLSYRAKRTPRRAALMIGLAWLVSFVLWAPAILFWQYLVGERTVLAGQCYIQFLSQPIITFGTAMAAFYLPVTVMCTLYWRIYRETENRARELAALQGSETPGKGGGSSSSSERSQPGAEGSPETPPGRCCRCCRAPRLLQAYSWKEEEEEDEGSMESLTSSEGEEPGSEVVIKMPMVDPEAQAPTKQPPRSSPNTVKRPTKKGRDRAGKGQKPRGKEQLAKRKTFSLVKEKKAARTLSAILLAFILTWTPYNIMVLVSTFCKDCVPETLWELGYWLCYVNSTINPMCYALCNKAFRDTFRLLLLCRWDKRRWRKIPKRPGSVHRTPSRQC
Put plainly: M1 PAM assay (FLIPR intracellular calcium), human M1. It is filed as cell-based. Summed up: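 CHO cells expressing M1, Fluo-4AM-loaded, in HEPES/probenecid HBSS pH 7.4, 1% DMSO final. Compounds pre-incubated 2 min for agonist activity versus 30 nM acetylcholine control. For PAM activity, acetylcholine EC20 added after the 2 min pre-incubation, then 2 min more before FLIPR intracellular Ca2+ read.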

Series [2] addresses T2, ratM1 (Rattus norvegicus, UniProt P08482).
T2 construct: expressed in transfected cells; host or cells: CHO cells (stated generally for the assay, not specifically for rat M1)
T2 sequence (P08482 1-460): T1 sequence (P11229 1-460) with A5V, T254S, P309S, R320K, A337G, I413V
Put plainly: M1 PAM assay (FLIPR intracellular calcium), rat M1. Format: cell-based.

The subject of series [3] is APP processing. The following applies: cited from earlier work.
The conditions of series [4]: cited from earlier work.
Where [5] appears, read: CHO human M1 cells, FLIPR Ca2+, with EC20 of acetylcholine, first value of the cell, read-out: hM1 EC50.
[6] abbreviates: rat M1, FLIPR Ca2+, second value of the cell, read-out: ratM1 EC50.

Numbering of substitutions follows the chain as printed. Where two headings read alike, the source gives them in different places.

Take `COc1ccc(F)c2c(C(=O)N[C@H]3CCCC[C@@H]3O)cn(Cc3ccc(-c4cnn(C)c4)cc3)c12` [Example 148, 4-fluoro-N-((1S,2S)-2-hydroxycyclohexyl)-7-methoxy-1-(4-(1-methyl-1H-pyrazol-4-yl)benzyl)-1H-indole-3-carboxamide]: the concentration for a half-maximal effect (EC50) stood at 84 nM in series [1] (setting [5]) and 139 nM in series [2] (setting [6]).

As to `COc1ccc(F)c2c(C(=O)N[C@H]3CCCC[C@@H]3O)cn(Cc3ccc(-c4cnn(C)c4)cc3F)c12` [Example 149, 4-fluoro-1-(2-fluoro-4-(1-methyl-1H-pyrazol-4-yl)benzyl)-N-((1S,2S)-2-hydroxycyclohexyl)-7-methoxy-1H-indole-3-carboxamide], the 50% effective concentration (EC50) is 438 nM in series [1] (setting [5]) and 348 nM in series [2] (setting [6]).

Take `COc1ccc(F)c2c(C(=O)N[C@H]3CCOC[C@@H]3O)cn(Cc3ccc(-c4cnn(C)c4)cc3)c12` [Example 150, 4-fluoro-N-((3R,4S)-3-hydroxytetrahydro-2H-pyran-4-yl)-7-methoxy-1-(4-(1-methyl-1H-pyrazol-4-yl)benzyl)-1H-indole-3-carboxamide]: the EC50 was 50 nM in series [1] (setting [5]) and 34 nM in series [2] (setting [6]).

`COc1ccc(F)c2c(C(=O)NC3CCOCC3)cn(Cc3ccc(-c4cnn(C)c4)cc3)c12` [Example 151, 4-fluoro-7-methoxy-1-(4-(1-methyl-1H-pyrazol-4-yl)benzyl)-N-(tetrahydro-2H-pyran-4-yl)-1H-indole-3-carboxamide]: the values for the half-maximal effective concentration (EC50) in series [1] (setting [5]) and in series [2] (setting [6]) were 194 nM and 299 nM, respectively.

For the molecule `COc1ccc(F)c2c(C(=O)NC3CCOCC3)cn(Cc3ccc(-c4cnn(C)c4)cc3F)c12` [Example 152, 4-fluoro-1-(2-fluoro-4-(1-methyl-1H-pyrazol-4-yl)benzyl)-7-methoxy-N-(tetrahydro-2H-pyran-4-yl)-1H-indole-3-carboxamide], the concentration giving a half-maximal response (EC50) in series [1] (setting [5]) was 260 nM; in series [2] (setting [6]), 609 nM.

On to `COc1ccc(F)c2c(C(=O)N[C@H]3CCOC[C@@H]3O)cn(Cc3ccc(-c4cnn(C)c4)cc3F)c12` [Example 153, 4-fluoro-1-(2-fluoro-4-(1-methyl-1H-pyrazol-4-yl)benzyl)-N-((3R,4S)-3-hydroxytetrahydro-2H-pyran-4-yl)-7-methoxy-1H-indole-3-carboxamide], for which the concentration for a half-maximal effect (EC50) in series [1] (setting [5]) and in series [2] (setting [6]) was 56 nM in each case.

Turning to `COc1ccc(F)c2c(C(=O)NC3CCOCC3)cn(Cc3ccc4c(cnn4C)c3)c12` [Example 154, 4-fluoro-7-methoxy-1-((1-methyl-1H-indazol-5-yl)methyl)-N-(tetrahydro-2H-pyran-4-yl)-1H-indole-3-carboxamide], the values for the EC50 in series [1] and in series [2] were 272 nM and 837 nM, respectively.

Consider `O=C(N[C@H]1CCCC[C@@H]1O)c1cn(Cc2ccc(-c3ccn[nH]3)cc2)c2cccc(F)c12` [Example 155, 1-(4-(1H-Pyrazol-5-yl)benzyl)-4-fluoro-N-((1S,2S)-2-hydroxycyclohexyl)-1H-indole-3-carboxamide], for which the EC50 is 11 nM in series [1] (setting [5]) and 5 nM in series [2] (setting [6]).

Consider `O=C(N[C@H]1CCCC[C@@H]1O)c1cn(Cc2ccc(-c3nc[nH]n3)cc2)c2cccc(F)c12` [Example 156, 1-(4-(1H-1,2,4-triazol-3-yl)benzyl)-4-fluoro-N-((1S,2S)-2-hydroxycyclohexyl)-1H-indole-3-carboxamide], for which the values for the 50% effective concentration (EC50) in series [1] (setting [5]) and in series [2] (setting [6]) were 3 nM and 10 nM, respectively.

On to `O=C(NC1CCOCC1)c1cn(Cc2ccc(-c3nc[nH]n3)cc2)c2cccc(F)c12` [Example 157, 1-(4-(1H-1,2,4-triazol-3-yl)benzyl)-4-fluoro-N-(tetrahydro-2H-pyran-4-yl)-1H-indole-3-carboxamide], for which the results for the EC50 in series [1] (setting [5]) and in series [2] (setting [6]) were 95 nM and 117 nM, respectively.

For `O=C(N[C@H]1CCCC[C@@H]1O)c1cn(Cc2ccc(-c3cncnc3)cc2)c2cccc(F)c12` [Example 158, 4-Fluoro-N-((1S,2S)-2-hydroxycyclohexyl)-1-(4-(pyrimidin-5-yl)benzyl)-1H-indole-3-carboxamide], the figures for the EC50 in series [1] (setting [5]) and in series [2] (setting [6]) were 23 nM and 61 nM, respectively.

With `O=C(N[C@H]1CCCC[C@@H]1O)c1cn(Cc2ccc(-c3cccnc3)cc2)c2cccc(F)c12` [Example 159, 4-Fluoro-N-((1S,2S)-2-hydroxycyclohexyl)-1-(4-(pyridin-3-yl)benzyl)-1H-indole-3-carboxamide], the concentration giving a half-maximal response (EC50) worked out at 20 nM in series [1] (setting [5]) and 47 nM in series [2] (setting [6]).

Turning to `O=C(N[C@H]1CCCC[C@@H]1O)c1cn(Cc2ccc(N3CCCC3)cc2)c2cccc(F)c12` [Example 161, 4-fluoro-N-((1S,2S)-2-hydroxycyclohexyl)-1-(4-(pyrrolidin-1-yl)benzyl)-1H-indole-3-carboxamide], the EC50 in series [1] (setting [5]) came to 121 nM; in series [2] (setting [6]) it was 307 nM.

For `O=C(N[C@H]1CCCC[C@@H]1O)c1cn(Cc2ccc(N3CCCC3)nc2)c2cccc(F)c12` [Example 162, 4-fluoro-N-((1S,2S)-2-hydroxycyclohexyl)-1-((6-(pyrrolidin-1-yl)pyridin-3-yl)methyl)-1H-indole-3-carboxamide], the EC50 in series [1] (setting [5]) was 214 nM; in series [2] (setting [6]), 751 nM.

For the molecule `CNC(=O)c1ccc(Cn2cc(C(=O)NC3CCOCC3)c3c(F)cccc32)cc1F` [Example 163, 4-Fluoro-1-(3-fluoro-4-(methylcarbamoyl)benzyl)-N-(tetrahydro-2H-pyran-4-yl)-1H-indole-3-carboxamide], the figures for the EC50 in series [1] (setting [5]) and in series [2] (setting [6]) were 59 nM and 82 nM, respectively.

Turning to `CNC(=O)c1ccc(Cn2cc(C(=O)NC3CCOCC3)c3c(F)cccc32)c(F)c1` [Example 164, 4-Fluoro-1-(2-fluoro-4-(methylcarbamoyl)benzyl)-N-(tetrahydro-2H-pyran-4-yl)-1H-indole-3-carboxamide], the figures for the 50% effective concentration (EC50) in series [1] (setting [5]) and in series [2] (setting [6]) were 48 nM and 88 nM, respectively.

For `Cc1cc(NC(=O)CS(=O)(=O)c2cn(Cc3cc(Br)ccc3F)c3ccccc23)no1` [ML169], in series [3], the “non-amyloidogenic APP processing” value is “promote non-amyloidogenic APP processing”.

Turning to `CCCCCCOc1nsnc1C1=CCCN(C)C1` [Xanomeline], the “cognitive scores and psychotic-like behaviors in patients with Alzheimer's disease” value in series [4] (clinical studies, patients with Alzheimer's disease (AD)) was “improved cognitive scores and reduced psychotic-like behaviors”. The “efficacy on symptoms in schizophrenic patients” value in series [4] (clinical studies, schizophrenic patients) is “robust efficacy on positive, negative and cognitive symptoms”. Besides, the “adverse effects (sweating, salivation, gastrointestinal distress, bradycardia)” value in series [4] (clinical, attributed to insufficient M1 subtype selectivity) is listed as “always associated with adverse effects”.
